Experimental data published in ChEMBL document CHEMBL4837226, “Discovery of pyrrole derivatives for the treatment of glioblastoma and chronic myeloid leukemia” (Eur J Med Chem, 2021).
Activity calls are given as the source filed them. The calls are words filed in the database; no cut-off is given here.

Experiments:
[1] = system: U-87 MG; experiment: Antitumor activity against human U-87MG cells xenografted in BALB/c nu/nu mouse assessed as increase in activated caspase-3 expression at 25 mg/kg, ip administered every 2 days for 35 days by DAPI staining based immunofluorescence analysis; format: functional, organism-based; details: U-87MG ATCC, time 35.0 day
[2] = system: KU812 cell line; experiment: Cytotoxicity against Bcr-Abl expressing human KU812 cells assessed as cell growth inhibition measured after 48 hrs by MTT assay; format: functional, cell-based; details: KU812, 48 h
[3] = biological target: Tubulin; experiment: Inhibition of tubulin polymerization (unknown origin) assessed as reduction in tubulin assembly preincubated for 15 mins followed by GTP addition by spectrophotometric method; format: protein-complex assay, Homo sapiens
[4] = system: U-87 MG; experiment: Cytotoxicity against human U-87MG cells assessed as cell growth inhibition by measuring maximum efficacy measured after 48 hrs by MTS colorimetric assay relative to control; format: functional, U-87MG ATCC
[5] = system: SW480; experiment: Cytotoxicity against human SW480 cells assessed as cell growth inhibition measured after 48 hrs by XTT dye based assay; format: functional; details: SW480, 48 h
[6] = system: U-87 MG; experiment: Antitumor activity against human U-87MG cells xenografted in BALB/c nu/nu mouse assessed as reduction in Bcl2 protein expression at 25 mg/kg, ip administered every 2 days for 35 days by DAPI staining based immunofluorescence analysis; format: functional, organism-based; details: U-87MG ATCC, time 35.0 day
[7] = system: KU812 cell line; experiment: Potentiation of ponatinib-induced apoptosis in human KU812 cells assessed as increase in apoptotic cells at 5 nM measured after 48 hrs by annexin V staining based flow cytometry analysis; format: functional, cell-based
[8] = biological target: T1, DNA topoisomerase 1 (Homo sapiens) (UniProt P11387); experiment: Inhibition of human recombinant topoisomerase I using supercoiled pHOT1 plasmid DNA as substrate at 10 to 100 uM measured after 1 hr by agarose gel electrophoresis analysis; details: dose 10-100 µM
T1 sequence (whole entry): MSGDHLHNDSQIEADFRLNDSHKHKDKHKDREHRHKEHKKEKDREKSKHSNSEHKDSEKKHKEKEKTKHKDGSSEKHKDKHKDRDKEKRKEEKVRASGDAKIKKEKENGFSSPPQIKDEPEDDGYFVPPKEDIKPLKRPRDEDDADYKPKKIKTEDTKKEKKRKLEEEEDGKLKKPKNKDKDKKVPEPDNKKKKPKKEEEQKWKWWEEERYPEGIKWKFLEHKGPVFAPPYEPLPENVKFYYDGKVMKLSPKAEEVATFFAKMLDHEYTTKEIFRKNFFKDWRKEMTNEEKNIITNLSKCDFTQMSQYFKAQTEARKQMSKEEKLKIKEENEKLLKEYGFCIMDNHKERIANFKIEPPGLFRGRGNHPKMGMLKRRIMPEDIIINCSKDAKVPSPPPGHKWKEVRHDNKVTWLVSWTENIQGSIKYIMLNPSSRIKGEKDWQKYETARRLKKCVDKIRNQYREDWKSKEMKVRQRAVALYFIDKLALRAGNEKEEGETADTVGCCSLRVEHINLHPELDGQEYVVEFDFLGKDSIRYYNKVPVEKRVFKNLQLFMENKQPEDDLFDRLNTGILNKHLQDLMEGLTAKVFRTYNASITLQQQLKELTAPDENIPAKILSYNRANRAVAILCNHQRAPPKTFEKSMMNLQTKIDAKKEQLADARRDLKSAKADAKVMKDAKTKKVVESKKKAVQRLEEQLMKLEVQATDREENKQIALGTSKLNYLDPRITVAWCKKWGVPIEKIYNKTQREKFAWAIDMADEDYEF

[9] = biological target: T1, DNA topoisomerase 1 (Homo sapiens); experiment: Inhibition of human recombinant topoisomerase I assessed as DNA cleavage using supercoiled pHOT1 plasmid DNA as substrate at 100 uM measured after 1 hr by agarose gel electrophoresis analysis
[10] = system: U-87 MG; experiment: Antitumor activity against human U-87MG cells xenografted in BALB/c nu/nu mouse assessed as reduction in Ki67 expression at 25 mg/kg, ip administered every 2 days for 35 days by DAPI staining based immunofluorescence analysis; format: functional, organism-based; details: U-87MG ATCC, time 35.0 day

Which Activity [1] does the source give for `COc1cc(C(=O)c2cn(-c3ccc(C)cc3)cc2-c2ccsc2)cc(OC)c1OC` here?
The Activity was “Active”.

What about the IC50 [2] of the same compound?
Its IC50 is 9.5 nM.

What about the IC50 [3] of the same compound?
Its IC50 is 390 nM.

And the Emax [4]?
The Emax was 55.6%.

What about the IC50 [5] of the same compound?
Its IC50 is 656 nM.

What about the Activity [6] of the same compound?
The Activity was “Active”.

And the Activity [7]?
Its Activity is “Active”.

And the inhibition [8]?
The inhibition was “inactive”.

What about the inhibition [9] of the same compound?
The inhibition was “Active”.

What about the Activity [10] of the same compound?
The Activity was “Active”.
